Measurements taken from US6077871A, “Droloxifene pharmaceutical compositions” (Pfizer Inc., priority 1998, dated 2000).
Structures can show the parent of a compound that is named as a salt. Where two headings read alike, the source gives them in different places.

Columns and labels:
[1] = pH 3, 30° C., 840 footcandle fluorescent light
Experimental: The stability of droloxifene citrate was determined at pH 3 with various concentrations of SBECD and HPBCD. For this protocol, the 0.02 M sodium phosphate buffer of pH 3 and the cyclodextrin solutions were prepared as for the droloxifene solubility determination described previously. 10 mL of each cyclodextrin solution was added to an 18 mL clear glass vial with screw cap which contained a previously weighed amount of droloxifene citrate. The vials were swirled until dissolution of droloxifene citrate was complete. The concentration of droloxifene citrate ranged from 0.05-0.1 mgA/mL. Concentrations of HPBCD included 0.2, 2, 4, 7 and 10% w/v. Concentrations of SBECD included 0.33 and 3.3% w/v. The vials were stored in an 840 footcandle fluorescent light box at 30° C. The solutions were removed briefly from time to time to allow drug concentration determination using the HPLC method described as for the solubility determination.

[2] = pH 3
Experimental: The solubility of droloxifene citrate was determined in an aqueous phosphate buffer at pH 3, without and with various levels of cyclodextrins. Solubility testing of droloxifene citrate in solutions of the cydodextrins, SBECD and HPBCD, was conducted using an equilibrium solubility method. The following protocol was employed for the solubility determination.
Separate 0.02 M aqueous buffer solutions of phosphoric acid (H3 PO4) and 0.02 M dibasic sodium phosphate (Na2 HPO4) were prepared by dissolving 2.25 gm and 2.84 gm, respectively, into separate one liter portions of deionized water and stirring with a magnetic stir bar until dissolved. To obtain a pH 3 buffer, the two previous buffers were combined, at an approximate ratio of 2:1 (H3 PO4 buffer:Na2 HPO4 buffer). The final volume of the resulting pH 3 buffer was not critical.
To 25 mL volumetric flasks, weights of either HPBCD or SBECD were added to produce final concentrations of each cyclodextrin shown in Table 1. For example, to prepare a 2% w/v solution of HPBCD in pH 3 phosphate buffer, 0.5 gm of HPBCD was accurately added to a 25 mL volumetric flask. […]
To 5 mL glass vials with screw caps, 3 mL of the desired cyclodextrin solution was added. […] The contents were filtered into a clean screw cap vial through a Millex-HV 0.45 μm filter (Millipore, Bedford, Mass.) and the drug concentration determined by an HPLC method. […]

[3] = Stability of droloxifene out of light / in light-protected solutions; type: physicochemical
Text: The results in Table 2 (below) show a stability enhancement of droloxifene with the inclusion of cyclodextrins. The concentration of cyclodextrin that results in the greatest stabilizing effect depends on the efficiency of the formation of the droloxifene-cyclodextrin inclusion complex, that is, the stability constant, as well as the initial concentration of droloxifene present. […] This stability improvement is further useful for preconstituted aqueous solutions which must have a long practical shelf-life, e.g., 2 years, even if packaged in a partially light-protected package. […] While not wishing to be held to any theory, it is believed that incorporation of droloxifene in the cyclodextrin cavity minimizes a cis-trans isomerization reaction, thus reducing the formation of the isomeric decay product and resulting in an overall stability improvement.

Row | Compound | Decay Rate Constant ([1]; 0.2% HPBCD) [h⁻¹] | Time Required for 1% Decay ([1]; 0.2% HPBCD) [h] | Decay Rate Constant ([1]; 0.33% SBECD) [h⁻¹] | Time Required for 1% Decay ([1]; 0.33% SBECD) [h] | Decay Rate Constant ([1]; 2% HPBCD) [h⁻¹] | Time Required for 1% Decay ([1]; 2% HPBCD) [h] | Decay Rate Constant ([1]; 3.3% SBECD) [h⁻¹] | Time Required for 1% Decay ([1]; 3.3% SBECD) [h] | Decay Rate Constant ([1]; no cyclodextrin) [h⁻¹] | Time Required for 1% Decay ([1]; no cyclodextrin) [h] | solubility with cyclodextrin [2] | stability in light-protected solutions ([3]; light-protected solutions with beta-cyclodextrins present) | stability out of light ([3]; out of light vs in light)
1 | CC/C(=C(/c1ccc(OCCN(C)C)cc1)c1cccc(O)c1)c1ccccc1 [droloxifene citrate] | 0.0094 | 1.1 | 0.0090 | 1.1 | 0.0030 | 3.3 | 0.0070 | 1.4 | 0.0123 | 0.8 | enhancement of droloxifene citrate solubility with cyclodextrin |  | 
2 | CC/C(=C(/c1ccc(OCCN(C)C)cc1)c1cccc(O)c1)c1ccccc1 [droloxifene, 1-[4'-(2-dimethylaminoethoxy)phenyl]-1-(3'-hydroxyphenyl)-2-phenylbut-1-ene] |  |  |  |  |  |  |  |  |  |  |  | an improvement in stability is also observed | significantly more stable out of light
